The target in one assay is CrGluCl-A (Caligus rogercresseyi, UniProt A0A1W6LZ70). Kind of assay: Two-electrode voltage-clamp of Xenopus oocytes expressing CrGluCl-A. It counts as cell-based. The note with it: CrGluCl-A alone. On the procedure: (§1) Adult female Xenopus laevis frogs were anaesthetized by immersion in a1g/L solution tricaine (Ethyl 3-aminobenzoate methanesulfonate, Sigma) buffered to pH 7 with NaHCO3. Surgery was performed 30–40 min later, once the frog was completely anaesthetized judging by loss of reflexes. Ovarian lobes were removed through 1 cm abdominal incision and then kept at 16°C in Barth’s modified solution containing (in mM): 88 NaCl, 1 KCl, 0.4 CaCl2, 0.3 Ca (NO3)2, 0.8 MgSO4, 2.4 NaHCO3, 5 Hepes, 2.5 sodium pyruvate, 100 μg/ml gentamicin sulfate, 100 U/ml penicillin, 100 μg/ml streptomycin, 250 μg/ml amphotericin B, 0.22μm filtered and adjusted to pH 7.5 with Tris-Base. Osmolarity was brought to 220 mOsm with saccharose. The oocytes were manually defolliculated on the same day of extraction and the following day 20 ng cRNA in nuclease-free water was injected into stage V-VI oocytes using a FemtoJet microinjector (Eppendorf). Finally, the injected oocytes were stored in 96 well plates containing Barth’s modified solution and kept at 16°C until experiment day.
CrGluCl-A, sequence (A0A1W6LZ70 entry or part of it): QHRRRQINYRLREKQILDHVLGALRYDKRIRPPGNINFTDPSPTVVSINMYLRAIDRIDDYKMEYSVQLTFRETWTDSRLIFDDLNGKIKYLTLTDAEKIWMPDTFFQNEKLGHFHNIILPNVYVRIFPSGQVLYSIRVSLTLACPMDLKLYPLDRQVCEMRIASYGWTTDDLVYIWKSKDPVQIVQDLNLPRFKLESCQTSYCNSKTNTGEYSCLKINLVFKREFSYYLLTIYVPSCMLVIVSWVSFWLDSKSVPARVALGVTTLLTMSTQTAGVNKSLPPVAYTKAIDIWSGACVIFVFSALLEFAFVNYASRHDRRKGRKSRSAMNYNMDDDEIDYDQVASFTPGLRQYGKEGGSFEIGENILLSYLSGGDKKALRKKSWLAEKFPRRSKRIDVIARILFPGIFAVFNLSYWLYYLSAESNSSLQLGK
Current measurements at controlled membrane potentials (voltage-clamp experiments) were performed using two intracellular microelectrodes in defolliculated Xenopus oocytes previously microinjected with 20 ng of cRNA. Voltage-clamp recording was performed at room temperature using a TURBO TEC-10CX amplifier (npi electronic GmbH, Tamm, Germany) and PClamp 10.6 software (Axon Instruments, USA), 1 to 4 days after oocyte injection. The oocytes were recorded in a chamber (Model RC-1Z, Warner Instrumenst, USA) under continuous superfusion. […] Reference was an Ag-AgCl electrode connected to the bath via a 3 M KCl in 3% agar bridge. Currents were recorded continuously during the experiments without interruptions for solution changes. […] The signal filtered at 1 kHz was acquired with a Digidata 1440A Analog-to-Digital Converter and analyzed with Axon pClamp 10.6 software. […]
(In two-electrode clamp one electrode senses voltage and the other passes current.)

The next assay deals with HcGluClα. Details: method as in PMID 7935817, PMID 8702744, PMID 25994631. The following applies: read-out: EC50 glutamate; cited from earlier work.
The subject of assay [1] is coexpressed CrGluCl-D:CrGluCl-B. Kind of assay: Voltage-clamp of oocytes coexpressing CrGluCl-D and CrGluCl-B. It counts as cell-based, Caligus rogercresseyi. The note with it: B:D ratio 1:1. On the procedure: as §1, with “The oocytes were manually defolliculated on the same day of extraction and the following day 20 ng cRNA in nuclease-free water was injected into stage V-VI oocytes using a FemtoJet microinjector (Eppendorf). Finally, the injected oocytes were stored in 96 well plates containing Barth’s modified solution and kept at 16°C until experiment day.” left out
(§2) Current measurements at controlled membrane potentials (voltage-clamp experiments) were performed using two intracellular microelectrodes in defolliculated Xenopus oocytes previously microinjected with 20 ng of cRNA. […] The oocytes were recorded in a chamber (Model RC-1Z, Warner Instrumenst, USA) under continuous superfusion. […] Currents were recorded continuously during the experiments without interruptions for solution changes. […] The signal filtered at 1 kHz was acquired with a Digidata 1440A Analog-to-Digital Converter and analyzed with Axon pClamp 10.6 software. […]

The test system of assay [2] is coexpressed CrGluCl-D:CrGluCl-A. The assay is described as follows: Voltage-clamp of oocytes coinjected with CrGluCl-D and CrGluCl-A. It counts as cell-based, Caligus rogercresseyi. The following applies: D:A ratio 1:1. On the procedure:
as §1, with “The oocytes were manually defolliculated on the same day of extraction and the following day 20 ng cRNA in nuclease-free water was injected into stage V-VI oocytes using a FemtoJet microinjector (Eppendorf). Finally, the injected oocytes were stored in 96 well plates containing Barth’s modified solution and kept at 16°C until experiment day.” left out
as §2

For a further assay, the system named is CrGluCl-B M340T mutant. Kind of assay: Voltage-clamp of oocytes expressing CrGluCl-B M340T mutant. The class given is cell-based, Caligus rogercresseyi. The following applies: 1 μM ivermectin.
Description: (§3) To identify putative GluCl subunits, we queried the NCBI Transcriptome Shotgun Assembly Sequence (TSA) Database for “glutamate-gated chloride channel Caligus”. The obtained sequences were translated and BLASTed (tBLASTn) against the C. rogercresseyi genome (WGS, BioProject ID 280098, NCBI) and against transcripts of L. salmonis database (https://licebase.org/). Primers for each of the putative new subunit found were designed to span the full length of the open reading frame (ORF) for each of them (B-E) (S1 Table, and arrows in Fig 1). Complete cDNAs were generated by RT-PCR from adult C. rogercresseyi samples from which putative full-length peptide sequences of CrGluCl-B, CrGluCl-C, CrGluCl-D and CrGluCl-E were obtained. Each PCR product was cloned in pGEM-T easy vector and sequenced. […]
as §2

In a further assay the test system is CrGluCl-B Q279E mutant. The assay is described as follows: Voltage-clamp of oocytes expressing CrGluCl-B Q279E mutant. It counts as cell-based, Caligus rogercresseyi. The note with it: 1 μM ivermectin, one-sample t-test.
Description: as §3, §2

We go through two compounds from publication PMC10038264, “A new family of glutamate-gated chloride channels in parasitic sea louse Caligus rogercresseyi: A subunit refractory to activation by ivermectin is dominant in heteromeric assemblies” (PLOS Pathogens, 2023).

As usually defined, the EC50 is the concentration needed to bring the measured effect to its halfway point. In the case of `N[C@@H](CCC(=O)O)C(=O)O` [glutamate, L-glutamate], the “nH (glutamate)” value on CrGluCl-A (60 mV) came to 1.65 ± 0.63. Further, the concentration for a half-maximal effect (EC50) on CrGluCl-A (EC50 Glutamate, currents at 60 mV, Hill fit) was 7.2 ± 2.7 µM; with HcGluClα it was 28 µM.

On to ivermectin, for which, in assay [1], the “nH (ivermectin)” value is recorded as 2.6 ± 1.1. Moreover, the EC50 in assay [1] (read-out: EC50 ivermectin (Iver response to activation)) was found to be 0.278 ± 0.053 µM. The “Iver response to activation” value in assay [2] is recorded as “Sensitive”. Also, the “effect of ivermectin on current” value in the assay with CrGluCl-B M340T mutant is “no effect”; in the assay with CrGluCl-B Q279E mutant, “small but significant effects”.
